Test results: patent US4177277A, “Method for alleviating hypertension” (E. R. Squibb & Sons, Inc., priority 1978, dated 1979)
Values after ≈ are worked out from the molar mass of the structure shown. Non-standard residues stand in square brackets, D forms with d. Residues, ends and D or L forms follow the SMILES beside them.

Legend:
[1] = tested on: angiotensin I converting enzyme in excised guinea pig ileum; test: Inhibition of angiotensin I converting enzyme in excised guinea pig ileum (contractile activity of angiotensin I); type: cell-based; settings: Cavia porcellus, Krebs solution at 37°, angiotensin I added after two minutes, read-out: IC50 (inhibition of the contractile activity of angiotensin I by 50%)
Method: After two minutes, angiotensin I ([…]) is added and the isotonic contractions are measured.

[2] = biological target: T1, angiotensin-converting enzyme of rabbit lung (Oryctolagus cuniculus, UniProt P12822); test: Inhibition of isolated angiotensin-converting enzyme of rabbit lung (cleavage of hippuryl-L-histidyl-L-leucine); type: biochemical; settings: 5 mM hippuryl-L-histidyl-L-leucine, pH 8.3, 30 minutes at 37° C., read-out: I50 (concentration producing a 50% inhibition of angiotensin-converting enzyme) (converted)
T1 construct: isolated angiotensin converting enzyme from rabbit lungs; from tissue; host or cells: rabbit lung
T1 sequence (P12822 34-1310): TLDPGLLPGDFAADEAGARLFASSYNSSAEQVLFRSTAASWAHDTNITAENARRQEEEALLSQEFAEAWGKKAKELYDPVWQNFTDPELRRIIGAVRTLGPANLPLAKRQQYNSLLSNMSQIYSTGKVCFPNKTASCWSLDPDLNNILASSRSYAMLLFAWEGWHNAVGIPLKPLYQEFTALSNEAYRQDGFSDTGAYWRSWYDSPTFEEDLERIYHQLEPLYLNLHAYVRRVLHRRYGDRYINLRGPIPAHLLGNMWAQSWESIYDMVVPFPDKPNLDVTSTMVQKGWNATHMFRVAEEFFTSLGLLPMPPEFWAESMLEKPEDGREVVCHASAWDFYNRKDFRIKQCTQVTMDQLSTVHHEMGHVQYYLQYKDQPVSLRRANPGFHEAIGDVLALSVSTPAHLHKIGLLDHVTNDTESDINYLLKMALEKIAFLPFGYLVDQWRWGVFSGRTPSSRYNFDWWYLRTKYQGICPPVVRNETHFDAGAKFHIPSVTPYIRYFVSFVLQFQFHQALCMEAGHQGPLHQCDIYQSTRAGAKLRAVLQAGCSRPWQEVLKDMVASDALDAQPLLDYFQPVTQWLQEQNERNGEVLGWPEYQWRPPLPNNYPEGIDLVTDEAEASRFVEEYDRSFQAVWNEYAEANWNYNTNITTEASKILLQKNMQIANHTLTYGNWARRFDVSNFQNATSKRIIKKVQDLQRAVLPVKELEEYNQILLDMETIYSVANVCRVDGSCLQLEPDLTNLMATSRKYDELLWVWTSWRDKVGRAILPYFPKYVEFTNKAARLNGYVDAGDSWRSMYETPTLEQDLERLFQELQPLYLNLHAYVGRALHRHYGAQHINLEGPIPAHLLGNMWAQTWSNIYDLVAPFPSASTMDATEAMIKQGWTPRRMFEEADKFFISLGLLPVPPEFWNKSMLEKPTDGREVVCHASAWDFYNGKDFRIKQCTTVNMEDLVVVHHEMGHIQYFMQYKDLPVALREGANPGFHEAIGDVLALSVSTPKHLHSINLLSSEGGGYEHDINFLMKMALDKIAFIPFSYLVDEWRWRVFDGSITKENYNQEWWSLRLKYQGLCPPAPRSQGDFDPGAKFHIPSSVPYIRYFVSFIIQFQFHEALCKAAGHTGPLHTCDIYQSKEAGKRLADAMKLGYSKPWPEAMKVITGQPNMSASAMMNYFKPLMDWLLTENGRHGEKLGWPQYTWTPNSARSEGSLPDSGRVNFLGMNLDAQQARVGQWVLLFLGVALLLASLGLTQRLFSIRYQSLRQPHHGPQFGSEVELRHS
From the text: Although conversion of angiotensin I to angiotensin II by angiotensin-converting enzyme is probably the reaction of most importance in the pathology of hypertension, the activity of the isolated enzyme is more conveniently and accurately assayed by measuring its rate of cleavage of a simpler peptide substrate, hippuryl-L-histidyl-L-leucine. […] Controls containing no inhibitor (100% activity), and those acidified before addition of the enzyme (0% activity) are similarly prepared. All of the enzymatic reations are initiated by addition of the enzyme component; tubes are incubated for 30 minutes at 37° C.; and reactions are terminated by addition of 0.25 ml. of 1 N HCl. The hippuric acid formed by action of angiotensin-converting enzyme on hippuryl-L-histidyl-L-leucine is extracted into ethyl acetate, evaporated to dryness, redissolved in water and quantitated from its absorbance at 228 nm. The percent inhibition by each concentration of compound is calculated by comparison with the 0% and 100% activity controls.

[3] = Fujimura et al. 1964; cited from earlier work
[4] = tested on: anesthetized normotensive rats; settings: intravenous injection, Schulze 1972; cited from earlier work
normotensive rats = settings: Ripa 1970; cited from earlier work
[5] = tested on: angiotensin I pressor response; test: Inhibition of angiotensin I pressor response in unanesthetized rats after oral administration; type: in vivo, rats of the Sprague-Dawley strain; settings: unanesthetized male Sprague-Dawley rats, 0.31 μg/kg angiotensin I, 2 animals
Method: A representative compound of the present invention administered orally at doses of 10 and 100 mg/kg to unanesthetized male rats of the Sprague-Dawley strain weighing about 200 g., followed by an injection of 0.31 μg/kg of angiotensin I, indicates the following degree of inhibition obtained.

| Compound | IC50 [1] [µg/mL] | IC50 [2] [nM] | also measured |
| --- | --- | --- | --- |
| NCCCC(CS)C(=O)N1CCC[C@H]1C(=O)O (mixture of isomers) [1-(5-Amino-2-mercaptomethylpentanoyl)-L-proline] | 0.47 (≈ 1.81 µM) | 69.1 | – |
| CC(S)C(=O)NCC(=O)O (stereo not shown) [2-mercaptopropionyl-glycine] | – | – | effects on blood pressure [3]: no noticeable effects on blood pressure; lowering of the blood pressure [4]: produced lowering of the blood pressure; angiotensinogen (normotensive rats): increases angiotensinogen; renin blood levels (normotensive rats): lowers renin blood levels |
| N[C@H](CS)C(=O)N1CCC[C@H]1C(=O)O [D-Cysteinyl-L-proline] (H-[dC]-Pro-OH) | 0.05 (≈ 0.229 µM) | 596 | % maximum inhibition of angiotensin I pressor response ([5]; 10 mg/kg orally): 62%; % maximum inhibition of angiotensin I pressor response ([5]; 100 mg/kg orally): 95% |

Continued, in another order:

| IC50 [1] [µg/mL] | IC50 [2] [nM] | Compound | also measured |
| --- | --- | --- | --- |
| 23 | 72800 | CC(=O)NC(CSC(C)=O)C(=O)N1CCC[C@H]1C(=O)O (mixture of isomers) [N,S-Diacetyl-DL-cysteinyl-L-proline] | – |
| 0.6 | 1150 | CC(=O)NC(CS)C(=O)N1CCC[C@H]1C(=O)O (mixture of isomers) [N-Acetyl-DL-cysteinyl-L-proline] | – |
| 23 (≈ 105 µM) | 36700 | N[C@@H](CS)C(=O)N1CCC[C@H]1C(=O)O [L-Cysteinyl-L-proline] (H-Cys-Pro-OH) | – |
